Each block holds one compound with its values, some of them ahead of it.
Experiments:
[1] = biological target: Transient receptor potential cation channel subfamily M member 7 (Homo sapiens) (UniProt Q96QT4); test: Inhibition of human recombinant ChaK1 at 500 nM in presence of ATP by radiometric assay relative to control
[2] = biological target: T1, Serine/threonine-protein kinase DCLK2 (Homo sapiens) (UniProt Q8N568); test: Inhibition of human recombinant DCAMKL2 at 500 nM in presence of ATP by radiometric assay relative to control
T1 sequence (whole entry): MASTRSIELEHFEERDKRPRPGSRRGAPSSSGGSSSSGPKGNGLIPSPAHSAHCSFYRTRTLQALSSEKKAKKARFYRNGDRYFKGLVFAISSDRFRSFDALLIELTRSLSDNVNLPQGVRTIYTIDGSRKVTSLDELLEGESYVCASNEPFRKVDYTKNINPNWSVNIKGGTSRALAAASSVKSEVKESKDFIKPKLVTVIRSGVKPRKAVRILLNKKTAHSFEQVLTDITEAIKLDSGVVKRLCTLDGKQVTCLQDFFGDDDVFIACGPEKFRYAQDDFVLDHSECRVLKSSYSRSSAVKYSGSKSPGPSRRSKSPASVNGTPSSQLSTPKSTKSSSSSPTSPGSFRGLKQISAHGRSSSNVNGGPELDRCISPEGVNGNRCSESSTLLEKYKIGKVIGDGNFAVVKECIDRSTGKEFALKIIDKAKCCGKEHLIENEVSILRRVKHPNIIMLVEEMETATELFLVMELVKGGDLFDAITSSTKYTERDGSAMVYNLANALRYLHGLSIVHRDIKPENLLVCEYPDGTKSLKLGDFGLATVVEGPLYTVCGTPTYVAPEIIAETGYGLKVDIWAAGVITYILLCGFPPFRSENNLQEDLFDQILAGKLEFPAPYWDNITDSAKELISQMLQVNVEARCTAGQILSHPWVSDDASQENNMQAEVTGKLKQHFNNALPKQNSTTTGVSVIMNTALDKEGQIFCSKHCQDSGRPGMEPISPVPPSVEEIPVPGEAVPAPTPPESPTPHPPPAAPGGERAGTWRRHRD

[3] = biological target: Dual specificity mitogen-activated protein kinase kinase 1 (Homo sapiens) (UniProt Q02750); test: Inhibition of human recombinant MAP2K1 at 500 nM in presence of ATP by radiometric assay relative to control
[4] = biological target: Serine/threonine-protein kinase PAK 6 (Homo sapiens) (UniProt Q9NQU5); test: Inhibition of human recombinant PAK6 at 15 nM in presence of ATP by radiometric assay relative to control
[5] = biological target: cAMP-dependent protein kinase catalytic subunit beta (Homo sapiens) (UniProt P22694); test: Inhibition of human recombinant PKACbeta at 15 nM in presence of ATP by radiometric assay relative to control
[6] = biological target: Calcium/calmodulin-dependent protein kinase type II subunit alpha (Homo sapiens) (UniProt Q9UQM7); test: Inhibition of human recombinant CaMK2a at 15 nM related to control ULK1
[7] = biological target: Maternal embryonic leucine zipper kinase (Homo sapiens) (UniProt Q14680); test: Inhibition of human recombinant MELK at 40 nM related to control ULK1
[8] = biological target: T2, Serine/threonine-protein kinase Nek9 (Homo sapiens) (UniProt Q8TD19); test: Inhibition of human recombinant NEK9 at 40 nM related to control ULK1
T2 sequence (whole entry): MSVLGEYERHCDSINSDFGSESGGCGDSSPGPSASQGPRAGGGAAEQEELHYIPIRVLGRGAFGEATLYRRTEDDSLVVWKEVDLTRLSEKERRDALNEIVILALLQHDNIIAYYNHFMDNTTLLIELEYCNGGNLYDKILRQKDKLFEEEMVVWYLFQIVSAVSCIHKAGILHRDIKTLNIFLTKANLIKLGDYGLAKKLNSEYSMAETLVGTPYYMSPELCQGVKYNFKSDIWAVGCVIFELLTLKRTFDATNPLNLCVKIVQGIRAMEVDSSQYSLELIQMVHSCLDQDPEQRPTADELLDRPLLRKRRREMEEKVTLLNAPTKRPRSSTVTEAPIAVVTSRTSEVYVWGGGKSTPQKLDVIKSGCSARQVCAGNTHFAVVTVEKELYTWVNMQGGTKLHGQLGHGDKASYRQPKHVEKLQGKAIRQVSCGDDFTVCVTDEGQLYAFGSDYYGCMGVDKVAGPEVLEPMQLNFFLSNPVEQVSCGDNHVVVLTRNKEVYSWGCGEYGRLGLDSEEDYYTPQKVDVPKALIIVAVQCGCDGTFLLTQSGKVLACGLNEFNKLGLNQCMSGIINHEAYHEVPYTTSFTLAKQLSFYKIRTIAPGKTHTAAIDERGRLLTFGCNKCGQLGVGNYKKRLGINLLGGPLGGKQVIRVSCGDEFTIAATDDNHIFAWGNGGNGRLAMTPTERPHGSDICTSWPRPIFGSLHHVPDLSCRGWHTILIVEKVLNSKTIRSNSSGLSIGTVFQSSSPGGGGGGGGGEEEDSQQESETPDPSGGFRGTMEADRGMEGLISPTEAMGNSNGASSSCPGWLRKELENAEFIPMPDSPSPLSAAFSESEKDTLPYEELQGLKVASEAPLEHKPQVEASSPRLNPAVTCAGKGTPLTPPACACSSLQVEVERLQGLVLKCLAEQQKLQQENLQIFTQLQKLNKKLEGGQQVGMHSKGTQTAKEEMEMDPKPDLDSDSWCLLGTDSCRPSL

[9] = biological target: Macrophage-stimulating protein receptor (Homo sapiens) (UniProt Q04912); test: Inhibition of human recombinant RON at 40 nM related to control ULK1
Macrophage-stimulating protein receptor (Homo sapiens), sequence (Q04912 25-304 limits assumed): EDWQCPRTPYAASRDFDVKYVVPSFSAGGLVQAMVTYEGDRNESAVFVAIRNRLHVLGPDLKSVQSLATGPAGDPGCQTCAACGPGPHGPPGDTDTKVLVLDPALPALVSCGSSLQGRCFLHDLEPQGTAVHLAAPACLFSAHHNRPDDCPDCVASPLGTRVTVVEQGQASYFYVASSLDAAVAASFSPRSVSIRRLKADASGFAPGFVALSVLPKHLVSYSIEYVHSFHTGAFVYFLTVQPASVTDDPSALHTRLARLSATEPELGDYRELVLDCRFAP
Macrophage-stimulating protein receptor (Homo sapiens), sequence (Q04912 310-1400 limits assumed): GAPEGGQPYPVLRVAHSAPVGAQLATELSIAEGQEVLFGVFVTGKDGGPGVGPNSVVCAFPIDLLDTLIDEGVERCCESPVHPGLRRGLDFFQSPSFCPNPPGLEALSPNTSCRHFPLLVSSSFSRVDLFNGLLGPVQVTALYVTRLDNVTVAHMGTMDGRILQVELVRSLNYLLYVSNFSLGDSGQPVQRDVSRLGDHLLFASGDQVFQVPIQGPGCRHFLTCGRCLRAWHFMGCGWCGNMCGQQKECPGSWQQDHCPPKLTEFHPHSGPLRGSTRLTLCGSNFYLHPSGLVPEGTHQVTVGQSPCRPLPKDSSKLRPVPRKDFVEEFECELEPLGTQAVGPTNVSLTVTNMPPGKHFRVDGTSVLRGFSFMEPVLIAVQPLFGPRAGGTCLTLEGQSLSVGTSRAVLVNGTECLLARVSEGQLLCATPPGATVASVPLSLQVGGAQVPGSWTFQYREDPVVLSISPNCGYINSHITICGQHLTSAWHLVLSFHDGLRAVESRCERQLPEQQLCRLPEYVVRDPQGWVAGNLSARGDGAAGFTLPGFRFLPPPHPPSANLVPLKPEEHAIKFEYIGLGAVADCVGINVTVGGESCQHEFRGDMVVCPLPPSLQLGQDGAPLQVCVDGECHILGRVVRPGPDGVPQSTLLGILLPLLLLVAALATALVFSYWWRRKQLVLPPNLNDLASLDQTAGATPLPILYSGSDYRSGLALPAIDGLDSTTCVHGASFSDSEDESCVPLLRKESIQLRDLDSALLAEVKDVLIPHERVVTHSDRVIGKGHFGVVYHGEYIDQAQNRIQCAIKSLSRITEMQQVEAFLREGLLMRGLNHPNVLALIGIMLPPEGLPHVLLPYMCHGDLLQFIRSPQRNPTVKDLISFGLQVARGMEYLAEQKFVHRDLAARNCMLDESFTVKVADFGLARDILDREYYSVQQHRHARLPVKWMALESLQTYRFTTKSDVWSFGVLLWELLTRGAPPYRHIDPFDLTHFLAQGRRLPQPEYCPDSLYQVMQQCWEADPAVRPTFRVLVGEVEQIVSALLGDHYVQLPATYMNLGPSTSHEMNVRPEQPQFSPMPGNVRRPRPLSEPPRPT

Transient receptor potential cation channel subfamily M member 7 (Homo sapiens), sequence (Q96QT4 whole entry): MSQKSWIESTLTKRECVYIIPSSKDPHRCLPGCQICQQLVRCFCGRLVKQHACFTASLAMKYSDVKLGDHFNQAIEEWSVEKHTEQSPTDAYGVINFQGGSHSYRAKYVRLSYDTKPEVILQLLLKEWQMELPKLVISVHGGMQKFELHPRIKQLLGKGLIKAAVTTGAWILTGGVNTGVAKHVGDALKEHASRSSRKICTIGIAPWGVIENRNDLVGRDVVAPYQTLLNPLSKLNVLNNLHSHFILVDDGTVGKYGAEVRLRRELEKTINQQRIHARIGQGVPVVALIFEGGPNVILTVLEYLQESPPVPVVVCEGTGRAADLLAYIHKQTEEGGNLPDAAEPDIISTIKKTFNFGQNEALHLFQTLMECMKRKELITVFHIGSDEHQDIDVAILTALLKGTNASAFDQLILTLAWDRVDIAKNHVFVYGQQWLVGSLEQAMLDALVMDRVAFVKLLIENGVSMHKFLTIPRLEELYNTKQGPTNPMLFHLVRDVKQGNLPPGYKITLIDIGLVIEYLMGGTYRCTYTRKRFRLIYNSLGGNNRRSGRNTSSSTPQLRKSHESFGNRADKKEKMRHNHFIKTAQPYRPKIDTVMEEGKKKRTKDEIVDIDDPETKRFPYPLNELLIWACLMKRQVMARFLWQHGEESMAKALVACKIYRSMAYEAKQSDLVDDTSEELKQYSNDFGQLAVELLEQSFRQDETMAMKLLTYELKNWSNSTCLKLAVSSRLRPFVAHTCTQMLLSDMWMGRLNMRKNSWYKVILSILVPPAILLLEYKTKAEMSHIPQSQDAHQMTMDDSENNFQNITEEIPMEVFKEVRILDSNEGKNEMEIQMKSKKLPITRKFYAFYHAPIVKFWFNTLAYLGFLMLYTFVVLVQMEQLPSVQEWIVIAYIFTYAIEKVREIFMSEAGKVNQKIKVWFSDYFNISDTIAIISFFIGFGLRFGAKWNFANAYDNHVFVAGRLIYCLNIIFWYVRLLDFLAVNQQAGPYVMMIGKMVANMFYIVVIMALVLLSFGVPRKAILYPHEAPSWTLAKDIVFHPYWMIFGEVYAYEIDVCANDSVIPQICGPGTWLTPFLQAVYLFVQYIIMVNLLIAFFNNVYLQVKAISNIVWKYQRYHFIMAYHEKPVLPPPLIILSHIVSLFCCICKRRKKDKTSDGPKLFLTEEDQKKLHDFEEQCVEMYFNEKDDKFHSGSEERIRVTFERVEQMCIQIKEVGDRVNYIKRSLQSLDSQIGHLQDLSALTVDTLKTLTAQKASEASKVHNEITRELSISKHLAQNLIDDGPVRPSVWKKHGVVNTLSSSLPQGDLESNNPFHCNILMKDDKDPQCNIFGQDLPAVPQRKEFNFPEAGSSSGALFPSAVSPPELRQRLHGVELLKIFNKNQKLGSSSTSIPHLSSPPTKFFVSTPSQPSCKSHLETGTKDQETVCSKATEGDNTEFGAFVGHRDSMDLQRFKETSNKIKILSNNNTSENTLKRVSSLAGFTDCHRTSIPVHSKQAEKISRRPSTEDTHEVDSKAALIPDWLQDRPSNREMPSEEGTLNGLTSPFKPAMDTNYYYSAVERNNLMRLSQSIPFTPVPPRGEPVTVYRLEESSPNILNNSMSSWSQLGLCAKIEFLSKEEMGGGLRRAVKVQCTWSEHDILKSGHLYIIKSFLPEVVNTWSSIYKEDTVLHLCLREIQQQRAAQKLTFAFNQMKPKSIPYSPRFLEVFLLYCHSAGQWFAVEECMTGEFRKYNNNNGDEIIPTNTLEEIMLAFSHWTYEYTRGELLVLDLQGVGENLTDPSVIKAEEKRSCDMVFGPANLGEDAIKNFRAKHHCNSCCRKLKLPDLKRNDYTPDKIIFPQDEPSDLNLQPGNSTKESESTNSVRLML
Maternal embryonic leucine zipper kinase (Homo sapiens), sequence (Q14680 whole entry, looked up): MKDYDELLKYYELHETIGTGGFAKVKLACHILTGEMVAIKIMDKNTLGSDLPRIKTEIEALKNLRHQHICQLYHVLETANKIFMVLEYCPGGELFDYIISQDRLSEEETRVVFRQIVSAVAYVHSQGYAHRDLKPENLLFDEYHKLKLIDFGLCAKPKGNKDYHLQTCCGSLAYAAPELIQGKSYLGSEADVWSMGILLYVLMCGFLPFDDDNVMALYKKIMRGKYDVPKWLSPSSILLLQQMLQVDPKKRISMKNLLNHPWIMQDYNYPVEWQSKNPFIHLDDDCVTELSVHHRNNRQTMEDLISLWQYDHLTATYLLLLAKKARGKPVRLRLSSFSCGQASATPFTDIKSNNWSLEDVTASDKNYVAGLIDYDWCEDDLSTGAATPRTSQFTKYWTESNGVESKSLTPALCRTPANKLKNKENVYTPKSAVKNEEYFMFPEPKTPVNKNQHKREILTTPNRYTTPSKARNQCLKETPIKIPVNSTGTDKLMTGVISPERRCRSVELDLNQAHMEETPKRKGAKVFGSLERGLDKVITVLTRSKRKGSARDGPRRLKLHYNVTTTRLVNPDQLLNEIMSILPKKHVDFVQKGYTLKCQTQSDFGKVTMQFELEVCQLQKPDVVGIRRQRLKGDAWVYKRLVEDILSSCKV
Calcium/calmodulin-dependent protein kinase type II subunit alpha (Homo sapiens), sequence (Q9UQM7 whole entry): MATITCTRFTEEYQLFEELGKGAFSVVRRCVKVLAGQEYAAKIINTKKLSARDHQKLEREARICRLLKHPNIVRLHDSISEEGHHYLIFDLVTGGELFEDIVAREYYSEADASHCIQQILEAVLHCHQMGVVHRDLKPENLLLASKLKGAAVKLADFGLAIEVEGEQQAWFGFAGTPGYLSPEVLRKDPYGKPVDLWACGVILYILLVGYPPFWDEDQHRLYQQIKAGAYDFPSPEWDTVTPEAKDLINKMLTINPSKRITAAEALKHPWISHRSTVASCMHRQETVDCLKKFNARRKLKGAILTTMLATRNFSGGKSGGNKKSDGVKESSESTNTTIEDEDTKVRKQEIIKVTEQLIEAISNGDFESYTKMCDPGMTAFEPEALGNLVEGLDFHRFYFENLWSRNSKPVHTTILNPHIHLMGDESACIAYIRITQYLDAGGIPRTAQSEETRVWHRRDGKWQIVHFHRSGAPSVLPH
Dual specificity mitogen-activated protein kinase kinase 1 (Homo sapiens), sequence (Q02750 whole entry): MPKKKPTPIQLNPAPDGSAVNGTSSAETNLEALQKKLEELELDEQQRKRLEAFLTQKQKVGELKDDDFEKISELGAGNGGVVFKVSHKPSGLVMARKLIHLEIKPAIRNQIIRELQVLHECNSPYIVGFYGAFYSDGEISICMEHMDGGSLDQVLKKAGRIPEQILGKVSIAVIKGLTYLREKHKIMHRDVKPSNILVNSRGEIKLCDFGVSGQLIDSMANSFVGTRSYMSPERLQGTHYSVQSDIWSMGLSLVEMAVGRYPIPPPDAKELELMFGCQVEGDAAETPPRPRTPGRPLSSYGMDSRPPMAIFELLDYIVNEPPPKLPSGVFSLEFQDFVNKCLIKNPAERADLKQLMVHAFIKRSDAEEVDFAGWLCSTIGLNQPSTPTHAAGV

- inhibition [1]: 0%
- inhibition [2]: 0%
- inhibition [3]: 0%
SMILES: CNC(=O)c1ccccc1Oc1nc(Nc2cc(OC)c(OC)c(OC)c2)ncc1Br

- inhibition [4]: 0%
- inhibition [5]: 0%
- fold change (FC) [6]: 0.47
SMILES: CC(C)[C@H](NC(=O)c1cc(-c2cnn3cc(-c4ccc(OCCN5CCCCC5)cc4)cnc23)cs1)C(F)(F)F

- fold change (FC) [7]: 0.27
- fold change (FC) [9]: 0
SMILES: O=C(N[C@@H](C1CC1)C(F)(F)F)c1cc(-c2cnn3cc(-c4ccc(F)cc4)cnc23)cs1
- fold change (FC) [8]: 0.07

— ChEMBL document CHEMBL5653631, “A Potent and Selective ULK1 Inhibitor Suppresses Autophagy and Sensitizes Cancer Cells to Nutrient Stress” (iScience, 2018)
